From patent US10208089B2, “Modulation of complement activity” (priority 2014, dated 2019)
Starred links: 1 amine or outer side, 2 acyl side, 3 side chain; linkers in the order of their positions; H or OH if unused. Positions of bridges follow the written chain, without caps; N, C: chain ends. Non-standard residues stand in square brackets, D forms with d. Residues, ends and D or L forms follow the SMILES beside them. Trp(7-aza) = N[C@@H](Cc1c[nH]c2ncccc12)C(=O)O; NMePhe(4-F) = CN[C@@H](Cc1ccc(F)cc1)C(=O)O; mXylylene = c1cc(C[*:1])cc(C[*:2])c1; oXylylene = c1ccc(C[*:2])c(C[*:1])c1; pXylylene = c1cc(C[*:2])ccc1C[*:1]; Chg = N[C@H](C(=O)O)C1CCCCC1; Phg = N[C@H](C(=O)O)c1ccccc1; Tle = CC(C)(C)[C@H](N)C(=O)O; NMeS = CN[C@@H](CO)C(=O)O; NMeA = CN[C@@H](C)C(=O)O; Nva = CCC[C@H](N)C(=O)O; Sar = CNCC(=O)O

Target: C5 (Homo sapiens, UniProt P01031)
Test: Human hemolysis assay (RBC lysis assay using complete human sera)
Type: cell-based
Parameters: with complete human sera (Complement Technology, Tyler Tex.) and polypeptides; tissue Complement Technology, Tyler Tex; host or cells: complete human serum
[1] = inhibition of lysis of antibody-sensitized sheep erythrocytes, complete human sera
[2] = C-terminally truncated polypeptide variants of R3021, inhibition of red blood cell lysis

C5, sequence (P01031 19-1676): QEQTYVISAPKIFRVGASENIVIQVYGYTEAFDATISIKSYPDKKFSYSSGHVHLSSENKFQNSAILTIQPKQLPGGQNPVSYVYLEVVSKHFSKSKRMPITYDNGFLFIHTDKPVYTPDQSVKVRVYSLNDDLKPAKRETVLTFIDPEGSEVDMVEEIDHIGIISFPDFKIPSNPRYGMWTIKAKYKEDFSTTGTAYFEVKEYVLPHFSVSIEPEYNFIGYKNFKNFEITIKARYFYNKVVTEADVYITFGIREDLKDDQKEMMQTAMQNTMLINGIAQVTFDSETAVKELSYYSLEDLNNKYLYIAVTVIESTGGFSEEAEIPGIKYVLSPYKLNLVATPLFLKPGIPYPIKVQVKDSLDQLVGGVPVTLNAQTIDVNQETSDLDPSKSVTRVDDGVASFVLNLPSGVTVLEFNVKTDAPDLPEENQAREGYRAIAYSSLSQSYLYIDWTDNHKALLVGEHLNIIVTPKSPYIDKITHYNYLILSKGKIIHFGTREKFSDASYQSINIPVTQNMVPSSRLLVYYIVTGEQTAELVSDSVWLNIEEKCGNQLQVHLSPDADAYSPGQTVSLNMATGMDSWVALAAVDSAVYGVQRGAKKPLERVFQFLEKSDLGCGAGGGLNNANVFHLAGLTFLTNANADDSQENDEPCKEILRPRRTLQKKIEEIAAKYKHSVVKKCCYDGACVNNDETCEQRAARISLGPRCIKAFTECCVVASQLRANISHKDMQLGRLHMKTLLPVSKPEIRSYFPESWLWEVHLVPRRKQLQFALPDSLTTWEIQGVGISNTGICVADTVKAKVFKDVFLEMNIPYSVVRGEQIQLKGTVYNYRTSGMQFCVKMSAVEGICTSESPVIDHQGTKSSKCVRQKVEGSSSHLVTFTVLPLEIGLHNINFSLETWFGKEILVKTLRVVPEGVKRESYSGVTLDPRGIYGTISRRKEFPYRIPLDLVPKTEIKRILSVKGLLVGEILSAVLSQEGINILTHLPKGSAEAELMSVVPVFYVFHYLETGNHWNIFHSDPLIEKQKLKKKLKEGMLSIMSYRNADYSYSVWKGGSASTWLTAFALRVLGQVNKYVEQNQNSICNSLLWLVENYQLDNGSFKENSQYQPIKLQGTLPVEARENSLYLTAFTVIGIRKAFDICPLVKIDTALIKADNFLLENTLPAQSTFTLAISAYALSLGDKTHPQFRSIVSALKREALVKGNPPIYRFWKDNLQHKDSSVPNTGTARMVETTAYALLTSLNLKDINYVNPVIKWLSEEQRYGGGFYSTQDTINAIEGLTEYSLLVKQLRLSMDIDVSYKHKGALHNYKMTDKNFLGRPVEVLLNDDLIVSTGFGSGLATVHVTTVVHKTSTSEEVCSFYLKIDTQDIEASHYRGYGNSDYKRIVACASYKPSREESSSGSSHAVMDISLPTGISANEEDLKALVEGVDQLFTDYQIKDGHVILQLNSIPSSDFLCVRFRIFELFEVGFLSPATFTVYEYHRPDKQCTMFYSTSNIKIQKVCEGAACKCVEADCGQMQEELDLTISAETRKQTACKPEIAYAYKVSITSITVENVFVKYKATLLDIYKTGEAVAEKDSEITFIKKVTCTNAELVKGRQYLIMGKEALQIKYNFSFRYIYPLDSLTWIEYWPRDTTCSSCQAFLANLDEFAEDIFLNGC

Compound: CCC[C@H](NC(=O)[C@@H]1CSCc2cccc(c2)CSC[C@H](NC(=O)[C@H](CCC)NC(C)=O)C(=O)N[C@@H](c2ccccc2)C(=O)N[C@@H]([C@@H](C)O)C(=O)N[C@@H](Cc2c[nH]c3ncccc23)C(=O)N[C@@H](CCC(=O)O)C(=O)N[C@@H](C)C(=O)N(C)[C@@H](CO)C(=O)N[C@@H](Cc2c[nH]cn2)C(=O)N1)C(N)=O [Compound R3036, [mXylyl(2,10)]Ac-Nvl-C-Phg-T-azaTrp-E-A-(N-Me)S-H-C-Nvl-NH2] (Ac-[Nva]C[Phg]T[Trp(7-aza)]EA[NMeS]HC[Nva]-NH2; linker 2-10 via mXylylene)
- IC50 [1]: > 50 µM

Compound: CCC[C@H](NC(=O)[C@@H]1CSCc2cccc(c2)CSC[C@H](NC(=O)[C@H](CCC)NC(C)=O)C(=O)N[C@@H](c2ccccc2)C(=O)N[C@@H]([C@@H](C)O)C(=O)N[C@@H](Cc2c[nH]c3ncccc23)C(=O)N[C@@H](CCC(=O)O)C(=O)N[C@@H](Cc2ccc(O)cc2)C(=O)N(C)[C@@H](C)C(=O)N[C@@H](Cc2c[nH]cn2)C(=O)N1)C(N)=O [Compound R3037, [mXylyl(2,10)]Ac-Nvl-C-Phg-T-azaTrp-E-Y-(N-Me)A-H-C-Nvl-NH2] (Ac-[Nva]C[Phg]T[Trp(7-aza)]EY[NMeA]HC[Nva]-NH2; linker 2-10 via mXylylene)
- IC50 [1]: 0.276 µM

Compound: CCC[C@H](NC(=O)[C@@H]1CSCc2cccc(c2)CSC[C@H](NC(=O)[C@H](CCC)NC(C)=O)C(=O)N[C@@H](c2ccccc2)C(=O)N[C@@H]([C@@H](C)O)C(=O)N[C@@H](Cc2c[nH]c3ncccc23)C(=O)N[C@@H](CCC(=O)O)C(=O)N[C@@H](Cc2ccc(O)cc2)C(=O)N(C)[C@@H](CO)C(=O)N[C@@H](C)C(=O)N1)C(N)=O [Compound R3038, [mXylyl(2,10)]Ac-Nvl-C-Phg-T-azaTrp-E-Y-(N-Me)S-A-C-Nvl-NH2] (Ac-[Nva]C[Phg]T[Trp(7-aza)]EY[NMeS]AC[Nva]-NH2; linker 2-10 via mXylylene)
- IC50 [1]: 0.14 µM

Compound: CCC[C@H](NC(C)=O)C(=O)N[C@H]1CSCc2cccc(c2)CSC[C@@H](C(=O)N[C@@H](C)C(N)=O)NC(=O)[C@H](Cc2c[nH]cn2)NC(=O)[C@H](CO)N(C)C(=O)[C@H](Cc2ccc(O)cc2)NC(=O)[C@H](CCC(=O)O)NC(=O)[C@H](Cc2c[nH]c3ncccc23)NC(=O)[C@H]([C@@H](C)O)NC(=O)[C@H](c2ccccc2)NC1=O [Compound R3039, [mXylyl(2,10)]Ac-Nvl-C-Phg-T-azaTrp-E-Y-(N-Me)S-H-C-A-NH2] (Ac-[Nva]C[Phg]T[Trp(7-aza)]EY[NMeS]HCA-NH2; linker 2-10 via mXylylene)
- IC50 [1]: 0.24 µM

Compound: CCC[C@H](NC(=O)[C@@H](NC(=O)[C@@H]1CCCN1C(=O)[C@H](Cc1ccc(O)cc1)NC(=O)[C@H](CCC(=O)O)NC(=O)[C@H](Cc1c[nH]c2ccccc12)NC(=O)[C@H](Cc1ccc(O)cc1)NC(=O)[C@@H](NC(=O)[C@H](CC(N)=O)NC(=O)[C@H](CCC(=O)O)NC(=O)[C@H](Cc1ccc(O)cc1)NC(C)=O)C(C)(C)C)c1ccccc1)C(N)=O [Compound R3041, Ac-Y-E-N-Tbg-Y-W-E-Y-P-Phg-Nvl-NH2]
- IC50 [1]: 0.0713 µM

Compound: CCC[C@H](NC(=O)[C@@H]1CSSC[C@H](NC(=O)[C@H](CCC)NC(C)=O)C(=O)N[C@@H](c2ccccc2)C(=O)N[C@@H]([C@@H](C)O)C(=O)N[C@@H](Cc2c[nH]c3ncccc23)C(=O)N[C@@H](CCC(=O)O)C(=O)N[C@@H](Cc2ccc(O)cc2)C(=O)N(C)[C@@H](CO)C(=O)N[C@@H](Cc2c[nH]cn2)C(=O)N1)C(N)=O [Compound R3042, [cyclo(2,10)]Ac-Nvl-C-Phg-T-azaTrp-E-Y-(N-Me)S-H-C-Nvl-NH2] (Ac-[Nva]C[Phg]T[Trp(7-aza)]EY[NMeS]HC[Nva]-NH2; disulfide 2-10)
- IC50 [1]: > 100 µM

Compound: CSCC[C@H](N)C(=O)N[C@H]1CSCc2cccc(c2)CSC[C@@H](C(=O)N[C@@H](CC(=O)O)C(=O)N[C@H](C(=O)N[C@@H](Cc2ccc(O)cc2)C(=O)N[C@@H](Cc2c[nH]c3ccccc23)C(N)=O)C(C)C)NC(=O)[C@H](Cc2ccccc2)NC(=O)[C@H](CCCNC(=N)N)NC(=O)[C@H](CCC(=O)O)NC(=O)[C@H](C(C)C)NC1=O [Compound R3044, [mXylyl(2,7)]M-C-V-E-R-F-C-D-V-Y-W-NH2] (H-MCVERFCDVYW-NH2; linker 2-7 via mXylylene)
- IC50 [2]: > 50 µM
- IC50 [1]: > 50 µM

Compound: CSCC[C@H](N)C(=O)N[C@H]1CSCc2cccc(c2)CSC[C@@H](C(=O)N[C@@H](CC(=O)O)C(=O)N[C@H](C(=O)N[C@@H](Cc2ccc(O)cc2)C(N)=O)C(C)C)NC(=O)[C@H](Cc2ccccc2)NC(=O)[C@H](CCCNC(=N)N)NC(=O)[C@H](CCC(=O)O)NC(=O)[C@H](C(C)C)NC1=O [Compound R3045, [mXylyl(2,7)]M-C-V-E-R-F-C-D-V-Y-NH2] (H-MCVERFCDVY-NH2; linker 2-7 via mXylylene)
- IC50 [2]: > 100 µM
- IC50 [1]: > 100 µM

Compound: CSCC[C@H](N)C(=O)N[C@H]1CSCc2cccc(c2)CSC[C@@H](C(=O)N[C@@H](CC(=O)O)C(=O)N[C@H](C(N)=O)C(C)C)NC(=O)[C@H](Cc2ccccc2)NC(=O)[C@H](CCCNC(=N)N)NC(=O)[C@H](CCC(=O)O)NC(=O)[C@H](C(C)C)NC1=O [Compound R3046, [mXylyl(2,7)]M-C-V-E-R-F-C-D-V-NH2] (H-MCVERFCDV-NH2; linker 2-7 via mXylylene)
- IC50 [2]: > 100 µM
- IC50 [1]: > 100 µM

Compound: CSCC[C@H](N)C(=O)N[C@H]1CSCc2cccc(c2)CSC[C@@H](C(N)=O)NC(=O)[C@H](Cc2ccccc2)NC(=O)[C@H](CCCNC(=N)N)NC(=O)[C@H](CCC(=O)O)NC(=O)[C@H](C(C)C)NC1=O [Compound R3047, [mXylyl(2,7)]M-C-V-E-R-F-C-NH2] (H-MCVERFC-NH2; linker 2-7 via mXylylene)
- IC50 [2]: > 100 µM
- IC50 [1]: > 100 µM

Compound: CC(=O)N[C@H]1CSCc2cccc(c2)CSC[C@@H](C(=O)N[C@@H](CC(=O)O)C(=O)N[C@H](C(=O)N[C@@H](Cc2ccc(O)cc2)C(=O)N[C@@H](Cc2c[nH]c3ccccc23)C(=O)N[C@@H](CCC(=O)O)C(=O)N[C@@H](Cc2ccccc2)C(N)=O)C(C)C)NC(=O)[C@H](Cc2ccccc2)NC(=O)[C@H](CCCNC(=N)N)NC(=O)[C@H](CCC(=O)O)NC(=O)[C@H](C(C)C)NC1=O [Compound R3048, [mXylyl(1,6)]Ac-C-V-E-R-F-C-D-V-Y-W-E-F-NH2] (Ac-CVERFCDVYWEF-NH2; linker 1-6 via mXylylene)
- IC50 [1]: 0.0193 µM
- ability to inhibit red blood cell lysis compared with the parent polypeptide (in words) (variants of R3021, R3002 or R3008): increased the ability

Compound: CCC[C@H](NC(=O)[C@@H]1CSCc2ccccc2CSC[C@H](NC(=O)[C@H](CCC)NC(C)=O)C(=O)N[C@@H](c2ccccc2)C(=O)N[C@@H]([C@@H](C)O)C(=O)N[C@@H](Cc2c[nH]c3ncccc23)C(=O)N[C@@H](CCC(=O)O)C(=O)N[C@@H](Cc2ccc(O)cc2)C(=O)N(C)[C@@H](CO)C(=O)N[C@@H](Cc2c[nH]cn2)C(=O)N1)C(N)=O [Compound R3049, [oXylyl(2,10)]Ac-Nvl-C-Phg-T-azaTrp-E-Y-(N-Me)S-H-C-Nvl-NE2] (Ac-[Nva]C[Phg]T[Trp(7-aza)]EY[NMeS]HC[Nva]-NH2; linker 2-10 via oXylylene)
- IC50 [1]: > 3.1 µM

Compound: CCC[C@H](N)C(=O)N[C@H]1CSCc2cccc(c2)CSC[C@@H](C(N)=O)NC(=O)CN(C)C(=O)[C@H](Cc2ccc(F)cc2)N(C)C(=O)[C@H](Cc2c[nH]cn2)NC(=O)[C@H](CO)N(C)C(=O)[C@H](Cc2ccc(F)cc2)N(C)C(=O)[C@H](c2ccccc2)NC(=O)[C@H](CO)N(C)C(=O)[C@H](Cc2ccc(O)cc2)NC1=O [Compound R3051, [mXylyl(2,11)]Nvl-C-Y-(N-Me)S-Phg-(N-Me-4-F)Phe-(N-Me)S-H-(N-Me-4-F)-Phe-(N-Me)G-C-NH2] (H-[Nva]CY[NMeS][Phg][NMePhe(4-F)][NMeS]H[NMePhe(4-F)][Sar]C-NH2; linker 2-11 via mXylylene)
- IC50 [1]: > 100 µM

Compound: CCC[C@H](N)C(=O)N[C@H]1CSCc2cccc(c2)CSC[C@@H](C(=O)N[C@H](C(=O)N(C)[C@@H](C)C(N)=O)c2ccccc2)NC(=O)[C@H](CC(C)C)NC(=O)CN(C)C(=O)[C@H](CC(N)=O)NC(=O)[C@H](c2ccccc2)NC(=O)[C@H](C(C)(C)C)NC(=O)[C@H](Cc2ccc(O)cc2)NC1=O [Compound R3052, [mXylyl(2,9)]Nvl-C-Y-Tbg-Phg-N-(N-Me)G-L-C-Phg-(N-Me)A-NH2] (H-[Nva]CY[Tle][Phg]N[Sar]LC[Phg][NMeA]-NH2; linker 2-9 via mXylylene)
- IC50 [1]: > 100 µM

Compound: CCC[C@H](NC(=O)[C@@H](NC(=O)[C@@H]1CCCN1C(=O)[C@H](Cc1ccc(O)cc1)NC(=O)[C@H](CCC(=O)O)NC(=O)[C@H](Cc1c[nH]c2ncccc12)NC(=O)[C@H](Cc1ccc(O)cc1)NC(=O)[C@@H](NC(=O)[C@H](CC(=O)O)NC(=O)[C@@H]1CSCc2cccc(c2)CSC[C@H](NC(=O)[C@@H](N)CCSC)C(=O)N[C@@H](C(C)C)C(=O)N[C@@H](CCC(=O)O)C(=O)N[C@@H](CCCNC(=N)N)C(=O)N[C@@H](Cc2ccccc2)C(=O)N1)C(C)(C)C)c1ccccc1)C(N)=O [Compound R3057, [mXylyl(2,7)]M-C-V-E-R-F-C-D-Tbg-Y-azaTrp-E-Y-P-Phg-Nvl-NH2] (H-MCVERFCD[Tle]Y[Trp(7-aza)]EYP[Phg][Nva]-NH2; linker 2-7 via mXylylene)
- IC50 [1]: 0.0124 µM

Compound: CCC[C@H](NC(=O)[C@@H]1CSCc2ccc(cc2)CSC[C@H](NC(=O)[C@H](CCC)NC(C)=O)C(=O)N[C@@H](C2CCCCC2)C(=O)N[C@@H]([C@@H](C)O)C(=O)N[C@@H](Cc2c[nH]c3ncccc23)C(=O)N[C@@H](CCC(=O)O)C(=O)N[C@@H](Cc2ccc(O)cc2)C(=O)N(C)[C@@H](CO)C(=O)N[C@@H](Cc2c[nH]cn2)C(=O)N1)C(N)=O [Compound R3058, [pXylyl(2,10)]Ac-Nvl-C-Chg-T-azaTrp-E-Y-(N-Me)S-H-C-Nvl-NH2] (Ac-[Nva]C[Chg]T[Trp(7-aza)]EY[NMeS]HC[Nva]-NH2; linker 2-10 via pXylylene)
- IC50 [1]: > 10 µM
